Source: patent US10174015B2, “Substituted heterocyclic derivative, preparation method and use thereof” (Xiamen University, priority 2014, dated 2019)
Read-outs that look alike come from different tables or passages of the source.

Legend:
[1] = Stability assays at acidic and basic conditions; format: physicochemical
Method: The sample containing the compound to be tested was then incubated in a constant temperature shaker at 37° C. At different time points (0 min, 10 min, 30 min, 1 h, 2 h, 4 h, 6 h, 12 h, 24 h), 50 μL sample was taken and added to 150 μL precooled methanol (containing the internal standard E8, 1 nmol/sample), wherein three parallel samples were prepared for each time point. The samples were then vertically mixed well, and transferred to a sample vial. LC-MS/MS was used to measure the peak area at different time points, Analyst® version 1.4.1. software was used to analyze chromatographic peak, and the content of the target compound was calculated based on the standard curve.

[2] = Assay on drug metabolism in rat; format: in vivo, SD rats; details: SD, plasma, iv, 30 mg/Kg via jugular vein
Source text: 50 SD rats (purchased from Shanghai SLAC Laboratory Animal Co., Ltd) were divided into 5 groups randomly, 10 rats per group. After anesthesia with ether, rat was fixed on the operating table on its back, and was shaved at the operative site of neck. After disinfection with 75% alcohol, the neck was cut about 1.5 cm longitudinally, muscle tissues and nervi vascularis surrounding trachea were separated by blunt dissection, and carotid artery was separated by blunt dissection. Ligation was performed at distal end, an artery clamp was used at proximal part, and the distance between them was about 1 cm. A small cut was made with a pair of ophthalmic scissors at proximal part close to the ligated site, and arterial duct was introduced from the small cut to the proximal part, the artery clamp was loosened, the arterial ostium was clamped with smooth forceps, whilst the arterial duct was delivered to heart ventricle. Upon the introduction of the arterial duct into heart ventricle, the blood vessel was ligated. By using the same intubation method for artery, intubation was applied to jugular veins. After intubation, a tubule filled with heparin sodium was drawn out from artery and vein, which passed through the skin under the ear of the rat and drawn out from the dorsal part skin of the neck of the rat, and the tubule was fixed well. The muscles and skin were sutured at the surgical site of the rat, and normal saline containing heparin sodium was injected from time to time via the tubule connecting the artery and the vein to prevent tubule obstruction due to blood coagulation. The rat was placed in a warm and clean cage provided with water and food, waiting for the rat to wake up naturally.
After the rat regained consciousness and acted normally, assay on metabolic stability of compounds was performed in the rat. All the agents to be injected (including compounds to be tested and control drug) were dissolved in a mixed solvent of PEG400:Tween 80:normal saline (at a volume ratio of 5:5:90), at a concentration of 5 mg/mL. The agent was injected slowly at a dose of 30 mg/Kg via the tubule drawn out from the jugular vein. After administration, the time was recorded, and blood was collected from the tubule drawn out from carotid artery at 2, 5, 10, 20, 30, 60, 240, 360, and 720 min, in an amount of 200 μL for each time. The whole blood was placed in commercially available heparin sodium blood-collecting tube (Jiangxi Jingzhi Medical Equipment Co., Ltd.), centrifuged at 1800 g for 15 min. To the supernatant plasma, 150 μL pre-cooled methanol stopping buffer (containing internal standard E8, 1 nmol/sample) was added, vertically mixed well, and then centrifuged at 4° C., 12000 g for 10 min. The supernatant was transferred to a sample vial, the target compound was detected by LC-MS/MS, and the content of the compound was calculated by virtue of standard curve.

[3] = Stability assay in rat plasma; format: in vitro ADME; details: 37° C.
Method: To each of several tubes sub-packaged with rat plasma, PBS solution was added in a volume equal to a quarter of plasma volume, and the resultant mixture was mixed well. […] At different time points (0, 10, 30, 60, 120, 240, 360, 720, 1440 min), 50 μL plasma sample was taken and added to 150 μL precooled methanol (containing the internal standard compound E8, with a structure of
[drawing 117] and a name of 1-(2-Biphenyl-4-yl)ethyl-carbonyl pyrrolidine, 1 nmol/sample), wherein three parallel samples were prepared for each time point. The samples were then vertically mixed well, and centrifuged at 4° C., 12000 g for 10 min. The supernatant was transferred to a sample vial. LC-MS/MS was used to measure the peak area at different time points, Analyst® version 1.4.1. software was used to analyze chromatographic peak, and the content of the target compound was calculated by virtue of the standard curve.

hERG potassium channel = hERG potassium channel (Homo sapiens (Human), UniProt Q12809); assay: hERG potassium channel automated patch clamp in CHO-hERG cells
hERG potassium channel, sequence (Q12809 whole entry): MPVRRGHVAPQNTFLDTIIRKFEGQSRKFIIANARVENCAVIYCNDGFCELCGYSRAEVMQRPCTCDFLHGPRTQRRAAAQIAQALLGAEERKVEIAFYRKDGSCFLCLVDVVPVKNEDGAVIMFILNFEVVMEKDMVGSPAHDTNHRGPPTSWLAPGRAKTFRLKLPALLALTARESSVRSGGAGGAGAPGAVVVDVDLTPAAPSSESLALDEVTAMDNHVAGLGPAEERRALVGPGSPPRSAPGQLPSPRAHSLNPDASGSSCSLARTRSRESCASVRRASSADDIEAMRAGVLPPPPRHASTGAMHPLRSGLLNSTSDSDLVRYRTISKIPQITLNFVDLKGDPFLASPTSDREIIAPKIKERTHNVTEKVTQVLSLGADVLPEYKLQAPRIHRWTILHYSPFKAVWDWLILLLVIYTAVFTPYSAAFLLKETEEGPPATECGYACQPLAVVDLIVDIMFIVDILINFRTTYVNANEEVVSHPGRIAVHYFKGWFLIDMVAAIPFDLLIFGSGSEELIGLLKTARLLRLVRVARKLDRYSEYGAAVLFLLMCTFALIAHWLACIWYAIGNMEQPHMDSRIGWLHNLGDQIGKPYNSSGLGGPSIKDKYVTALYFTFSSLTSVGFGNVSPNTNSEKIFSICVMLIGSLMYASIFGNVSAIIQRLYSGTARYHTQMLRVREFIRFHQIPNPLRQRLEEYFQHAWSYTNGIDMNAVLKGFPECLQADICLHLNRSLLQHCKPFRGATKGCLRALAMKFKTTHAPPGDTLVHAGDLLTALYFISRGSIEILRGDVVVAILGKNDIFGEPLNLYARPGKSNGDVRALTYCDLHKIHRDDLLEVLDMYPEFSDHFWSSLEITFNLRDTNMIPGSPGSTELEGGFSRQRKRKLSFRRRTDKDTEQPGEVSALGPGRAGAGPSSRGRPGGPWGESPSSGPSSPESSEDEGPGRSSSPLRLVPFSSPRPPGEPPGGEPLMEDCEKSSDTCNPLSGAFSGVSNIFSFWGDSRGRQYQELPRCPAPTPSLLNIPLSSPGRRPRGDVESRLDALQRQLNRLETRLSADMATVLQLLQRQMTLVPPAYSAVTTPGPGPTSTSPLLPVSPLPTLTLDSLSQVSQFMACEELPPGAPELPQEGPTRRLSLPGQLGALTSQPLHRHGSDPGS
Method: CHO-hERG cells (purchased from ATCC) were incubated in a culture flask. When the cell density reached 60˜80%, the culture medium (Glutamax DMEM/F12 medium (Gibco, Shanghai) containing 10% fetal bovine serum) was removed. The cells were washed with 7 mL PBS once, and then digested by adding 3 mL Detachin cell dissociation buffer. After complete digestion, the resultant mixture was neutralized by adding 7 mL culture medium, and centrifuged. The supernatant was removed with a pipette, 5 mL culture medium was added to re-suspend the cells to ensure a cell density of 2˜5×10^6/mL.
Intracellular fluid and extracellular fluid were prepared as described in the following table.
A certain amount of compound was dissolved in […] at the following concentrations, to prepare the stock solution of compound. 2 μL stock solution of compound was added to 998 μL extracellular fluid, and was subjected to 5-fold serial dilution in extracellular fluid containing 0.2% DMSO to get the final concentrates to be tested.
Single cell giga-seal and formation of whole-cell mode were automatically performed by Sophion Qpatch HT fully automated cell patch clamp systems. After obtaining the whole-cell recording mode, the cell was clamped at −80 mV. The cell first underwent pre-voltage of −50 mV for 50 msec, then underwent depolarization stimulation at 20 mV for 5 sec, and then underwent repolarization at −50 mV for 5 sec, and then the voltage return to −80 mv. The cell underwent the stimulation at the voltage every 15 sec, and the data were recorded for 2 min, then extracellular fluid was administered, and then the data were recorded for 2 min. Then, the administration process begun. The concentration of a test compound started from the lowest concentration, each test concentration was administered for 2 min. […] At least three cells were tested for each concentration (n≥3). The experimental data was analyzed by XLFit software.

[4] = tested on: inflammatory abdominal pain caused by acetic acid; assay: Abdominal inflammatory pain caused by acetic acid; format: in vivo, Kunming mice; details: mice, 10 mg/kg i.p. 1 h before acetic acid; indometacin 20 mg/kg (FIG. 4)
Method: (§1) In the Experimental example, compounds to be evaluated or compounds to be tested or test compounds used are the Compounds 1-46 prepared in the Examples according to the invention. In the Experimental example, all the agents for injection, including compounds to be evaluated or compounds to be tested or test compounds, and positive control drug, were dissolved in a mixed solvent of PEG400:Tween 80:normal saline (at a volume ratio of 5:5:90), at a concentration of 5 mg/mL.
Typical model for studying inflammation-induced visceral pain medically was used to evaluate the therapeutic effects of compounds on inflammatory visceral pain. The model can represent general visceral pain including, but not only limited to appendicitis, gastritis, pancreatitis, prostatitis, myocarditis, interstitial cystitis, pain caused by hepatic, gall or kidney stone, irritable bowel syndrome, and chronic pelvic pain syndrome.
Experimental Kunming mice (purchased by Xiamen University Laboratory Animal Center from Shanghai SLAC Laboratory Animal Co., Ltd) were in an experimental environment with free access to food and water for 1 week. The mice were fasted for 24 h before administration. The compound to be evaluated (10 mg/kg) was administered to the mice by intraperitoneal injection at 1 h before administration of acetic acid, wherein the positive control drug indometacin was administered at a dose of 20 mg/kg, and the blank control was normal saline. Acetic acid (50 μL, acetic acid dissolved in normal saline, at a concentration of 5%) was administered to the mice by intraperitoneal injection, and the mice were then placed in the observation cage. A video camera was used to record the behavior of the mice in the following 20 min. Pain-related behavior was analyzed statistically based on torsion times of the mice in said period.

[5] = tested on: headache caused by nitroglycerin; assay: Nitroglycerin-induced headache rat model; format: in vivo, Wistar rats; details: rats, 10 mg/kg i.p. 1 h before nitroglycerin (FIG. 5)
Method: as §1
Nitroglycerin-induced headache rat model was a common model for studying inflammatory pain medically. The model was used in the invention to evaluate the therapeutic effects of the compounds on headache. The model can represent mixed pain including, but not only limited to: migraine, cluster headache, tension headache syndrome, prosopodynia, lumbodynia, shoulder pain, burning mouth syndrome, and complex regional pain syndrome.
Experimental Wistar rats with a body weight of about 250 g for each (purchased from Shanghai SLAC Laboratory Animal Co., Ltd) were in an experimental environment with free access to food and water for 1 week. The rats were fasted for 24 h before administration. The compound to be evaluated (10 mg/kg) was intraperitoneally injected to the rat at 1 h before the administration of nitroglycerin, wherein the positive control drug was indomethacin and the blank control was normal saline. Nitroglycerin (10 mg/kg, nitroglycerin dissolved in normal saline, at a concentration of 5%) was injected at epidermis of the rat neck, and the rats were then placed in the observation cage. A video camera was used to record the behavior of the rats in the following 60 min. Pain-related behavior was analyzed statistically based on the times that the rat scratched its head in said period.

SNI neuropathic pain = assay: Neuropathic pain mouse model induced by spared nerve injury (SNI); format: in vivo, C57BL/6 mice; details: SNI mice, 10 mg/kg intraperitoneal, 1 h and 4 h after administration (FIGS. 1 and 2)
Method: as §1
Neuropathic pain mouse model induced by spared nerve injury (SNI) is a common animal model for studying neuropathic pain medically. The invention uses the model to evaluate the therapeutic effects of the compounds on neuropathic pain, wherein the model can represent peripheral neuropathic pain including, but not limited to post-herpetic neuralgia, pain caused by diabetic perineuropathy, neurothlipsis and exudation caused by tumor, lumbar surgery failure syndrome, neuropathic pain caused by lumbar disc protrusion, postpartum neuralgia, trigeminal neuralgia, chemotherapy-induced multiple neuropathic pain, post-radiotherapy plexopathy, and radicular neuralgia.
C57BL/6 mice (purchased from Shanghai SLAC Laboratory Animal Co., Ltd) were anesthetized by intraperitoneal injection with pentobarbital sodium (40 mg/kg), and skin from knee joint to gluteal region was subjected to skin preparation and disinfection. After the mice were fixed, the knee joint part was cut about 1 cm longitudinally with bistoury, and muscle tissues were separated by blunt dissection to expose sciatic nerve. The tibial and common peroneal nerve branches of sciatic nerve stem were cut off carefully, and the cut was then stitched up. The mice was placed in a clean observation cage. In the sham-operation group, only sciatic nerve was exposed without cutting the tibial and common peroneal nerve branches. From the day before the experiment to 24 h after the operation, the plantar edges of the mice were stimulated everyday by […] (Ugo Basile Company (Italy), Product ID: 37450), and data was collected automatically to obtain the threshold value of mice to mechanical stimulation. […] The positive control drug gabapentin was administered at a dose of 100 mg/kg. All the agents to be injected were dissolved in a mixed solvent of PEG400:Tween 80:normal saline (at a volume ratio of 5:5:90), at a concentration of 5 mg/mL. By comparing the threshold values (the acting force of when the mouse retracting the paw) at different administration time in different administration groups, the compound was evaluated for its analgesic effect on neuropathic pain.

NAAA = NAAA inhibitor, literature value; cited from earlier work
[6] = tested on: inflammatory pain induced by carrageenan and neuropathic pain caused by sciatic nerve ligation; details: cited from earlier work
[7] = biological target: N-acylethanolamide hydrolyzing acid amidase (NAAA) (Rattus norvegicus, UniProt Q5KTC7); assay: Endocannabinoid hydrolase activity: NAAA inhibition (17:1 FAE hydrolysis, LC-MS); format: biochemical
N-acylethanolamide hydrolyzing acid amidase (NAAA), sequence (Q5KTC7 34-130 limits assumed): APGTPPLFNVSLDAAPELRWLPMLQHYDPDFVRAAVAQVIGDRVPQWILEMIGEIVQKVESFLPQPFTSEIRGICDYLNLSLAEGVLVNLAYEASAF
N-acylethanolamide hydrolyzing acid amidase (NAAA), sequence (Q5KTC7 131-362 limits assumed): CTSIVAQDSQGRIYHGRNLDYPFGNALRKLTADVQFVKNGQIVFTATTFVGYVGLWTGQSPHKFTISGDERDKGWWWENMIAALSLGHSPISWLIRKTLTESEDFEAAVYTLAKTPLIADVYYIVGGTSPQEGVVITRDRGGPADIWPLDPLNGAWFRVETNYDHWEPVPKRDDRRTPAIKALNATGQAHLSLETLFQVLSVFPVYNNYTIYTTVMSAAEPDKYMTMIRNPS
Method: The preparation method was as followed: a plasmid (pCDNA3.1/NAAA or pCDNA3.1/FAAH) carrying a whole NAAA/FAAH gene was constructed, wherein the plasmid carried Cytomegalovirus (CMV) promoter and Neomycin selectable gene; the plasmid was transformed into HEK-293 cell via lipid medium, stable cell lines expressing NAAA/FAAH at a high level were obtained by G418 screening and Western-blot method. HEK-293 recombinant cells were cultured and collected, washed with PBS for 2-3 times, and ultrasonically treated in 20 mM Tris-HCl containing 0.32 M sucrose, then repeatedly frozen and thawed twice, and then centrifuged at 4° C., 800 g for 15 min. The supernatant (i.e., the desired protein) was collected, the protein concentration was determined by BCA method, and the protein was diluted to a concentration of 1 mg/mL, and sub-packaged and stored in a refrigerator at −80° C. for further use.
The reaction was carried out at 37° C. for 10 min. 170 μL buffer (the buffer consisted of 50 mM disodium Hydrogen Phosphate, 0.1% Triton X-100, 3 mM DTT, 150 μL) containing enzymatic hydrolysis substrate (the substrate was a heptadecenoyl ethanolamine containing a double bond and 17 carbon atoms, abbreviated as 17:1 FAE) was further added, wherein the concentration of 17:1 FAE was 5 μM. The reaction was carried out at 37° C. for 30 min, and 200 μL methanol solution containing internal standard (the internal standard was margaric acid, at a concentration of 1 nmol) was then added to stop the reaction. LC-MS was used to determine the yield of the hydrolysate 17:1 FA (i.e., a heptadecenoic acid containing a double bond) of 17:1 FAE, then a graph was plotted with Graphpad Prism 5. Thereby, the IC50 of the test compound on endocannabinoid hydrolase was determined.

[8] = PBS pH 5.0, 37° C., read-out: Half-life pH 5.0
[9] = PBS pH 7.4, 37° C., read-out: Half-life pH 7.4

Row | Structure (SMILES) | half-life at 1 μM [1, 8] [h] | half-life at 1 μM [1, 9] [h] | half-life [2] [h] | half-life at 2 μM [3] [h] | IC50 [7] [nM] | other results
1 | O=C(CCCCCc1ccc(O)cc1)N1CCOC1=O [Compound 31, 4-Hydroxyphenylhexanoyl Oxazolidinone] | > 24 | > 24 | 1.23 | 2.2 |  | 
2 | O=C(CCCCCC1CCCNC1)N1CCOC1=O (centres unmarked) [Compound 34, Piperidin-3-yl-hexanoyl Oxazolidinone] |  |  |  |  |  | IC50 (hERG potassium channel): > 40000 nM
3 | N[C@H]1CC(=O)N(C(=O)CCCCCc2ccccc2)C1 [Compound 30] |  |  |  |  |  | effect of inhibiting abdominal inflammatory pain [4]: did not exhibit any effect of inhibiting abdominal inflammatory pain; effect of inhibiting nitroglycerin-induced headache [5]: did not exhibit any effect of inhibiting headache in rats; effect of inhibiting central neuropathic pain (SNI neuropathic pain): did not exhibit any effect of inhibiting central neuropathic pain
4 | O=C(CCCCCc1cccc(F)c1)N1CCOC1=O [Compound 8, 3-Fluorophenylhexanoyl Oxazolidinone] | > 24 | > 24 | 1.55 | 2.75 |  | 
5 | C[C@@H]1OC(=O)[C@@H]1NC(=O)OCCCCCc1ccccc1 [ARN077] |  |  |  |  |  | IC50 (NAAA): 127 nM; analgesic effects on allodynia compared with gabapentin ([6]; sciatic nerve ligation, ARN077 1%, 20 μL, epidermal, gabapentin 50 mg/kg oral): better analgesic effects on allodynia than the positive control agent gabapentin; effect on inflammatory and neuropathic pain ([6]; topical administration): significantly inhibit inflammatory pain induced by carrageenan and neuropathic pain caused by sciatic nerve ligation
6 | CC(=O)C[C@@H]1COC(=O)N1C(=O)CCCCCc1cccc(C)c1 [Compound 11] | > 24 | > 24 | 3.07 | 4.45 |  | 
7 | O=C1OCCN1C(=O)C1CCC(Cc2ccccc2)CC1 (centres unmarked) [Compound 24, 4-Benzylcyclohexanoyl Oxazolidinone] |  |  |  |  |  | effect of inhibiting abdominal inflammatory pain [4]: did not exhibit any effect of inhibiting abdominal inflammatory pain; effect of inhibiting nitroglycerin-induced headache [5]: did not exhibit any effect of inhibiting headache in rats; effect of inhibiting central neuropathic pain (SNI neuropathic pain): did not exhibit any effect of inhibiting central neuropathic pain
8 | Cc1ccc(CCCCCC(=O)N2CCOC2=O)cc1 [Compound 33, 4-Methylphenylhexanoyl Oxazolidinone] |  |  |  |  | 440 | 
9 | O=C1OCCN1C(=O)c1ccc(Oc2ccccc2)cc1 [Compound 41, 4-Phenoxybenzoyl Oxazolidinone] | > 24 | > 24 | 2.92 | 5.33 | 680 | 
10 | Cc1cccc(CCCCCC(=O)N2CCOC2=O)c1 [Compound 32, 3-Methylphenylhexanoyl Oxazolidinone] |  |  |  |  | 350 | 
